# Measurements taken from patent EP0845210A1, “New herbicidal compositions” (RHONE-POULENC AGRICULTURE LTD., priority 1994, dated 1996).
# Experiments:
# Assay type in all cases: in vivo
# maize (Zea mays) = test: Procedure D: pre-emergence field trial (Volga, Brookings), crop phytotoxicity about 26 days after treatment; conditions: A 37.5 g/ha alone
# Procedure: The following experiments were carried out pre-emergence of the weed species. Compound A, formulated as a wettable dispersible granule as described in Example 1 herebelow (750g per kilogram) and each acetochlor (used as the commercially available formulation "Harness" (trade mark), an emulsifiable concentrate containing 960g of acetochlor per kilogram, and which also contains the safening agent flurazole, metolachlor (used as the commercially available formulation "Duelor" (trade mark), an emulsifiable concentrate emulsifiable concentrate containing 960g of metolachlor per kilogram), alachlor (used as the commercially available formulation "Lasso" (trade mark), an emulsifiable concentrate containing 480g of alachlor per kilogram) and dimethenamid (used as the commercially available formulation "Frontiere" (trade mark), a flowable containing 900g/l active ingerident) were dissolved in water and sprayed at a volume rate of 187 litres/hectare on various test plots (10 square meters in area) either alone or in mixtures. The soil was a clay-loam, with a pH of 7, the experiments being conducted in June in Volga, Brookings, U.S.A. The various weed and crop species were drill sown and the various compositions were applied on the same day after drilling. Three replicates were performed and the efficacy of the various mixtures were determined by visual assessment of the percentage phytotoxicity in comparison with an untreated control. Assessment was made about 26 days after treatment. In the Tables which follow the dose is expressed in grammes per hectare and the figures in brackets represent the expected results according to the Colby formula.
# Setaria viridis = test: Procedure A: pre-emergence glasshouse pot test, growth reduction assessed two weeks after treatment; conditions: Table A1
# Source text: (§1) Seed of the various species of broad-leaf or grass weeds were sown in unsterilised clay loam soil in 7 centimetre by 7 centimetre plastic plant pots. The pots were watered and allowed to drain. The soil surface was then sprayed with ranges of concentrations of either the individual herbicide or mixtures of two herbicides in various proportions, dissolved in a 50:50 by volume solution of acetone and water, using a track sprayer set to deliver the equivalent of 290 l/ha. All herbicides were used as unformulated technical materials except dimethenamid, which was used as the commercial formulation "Frontiere" (trade mark), a flowable containing 900g/l active ingredient; and alachlor, which was used as "Lasso" (trade mark), an emulsifiable concentrate formulation containing 480g/l active ingredient.
# (§2) Treated pots were placed at random in four replicate blocks per treatment for each plant species. The pots were held, in a glasshouse, standing on moist capillary matting, under lights and with overhead watering twice daily.
# (§3) Two weeks after treatment the percent reduction in plant growth, compared to an untreated control, was assessed.
# (§4) Mean percent reduction in plant growth was calculated for each treatment. Dose/mean response was plotted on Log concentration/Probability graph paper, and lines fitted by eye. For herbicide mixtures a dose/response line for the first herbicide was drawn for each dose rate of the second herbicide and a dose/response line for the second herbicide was drawn for each dose rate of the first herbicide. The doses representing a 90% reduction in plant growth (LD90's) were read from these lines and plotted on graphs whose axes were dose rates of the two herbicides. The line joining these points is an Isobole i.e. a line joining points (mixtures) of equal activity, as described by P.M.L. Tammes, Neth. J. Plant Path. 70 (1964) : 73-80. A line was also drawn joining the LD90's of the individual components of the mixture. This line represents the theoretical isobole if the effect of the two components is additive i.e. there is no interaction between them. Isoboles falling below this line indicate synergy between the components while lines lying above it indicate antagonism.
# (§5) In the tables that follow 'dose' represents the dose rate in grammes per hectare of the active ingredient used; and the figures for the weed control are percentages reduction in growth when compared with the untreated controls.
# Digitaria sanguinalis = test: as above
# Source text: as §1, §2, §3, §4, §5
# Amaranthus retroflexus = test: as above; conditions: Table A2
# Source text: as §1, §2, §3, §4, §5
# Echinochloa crus-galli = test: as above
# Source text: as §1, §2, §3, §4, §5
# maize = test: Procedure C: field trial of crop phytotoxicity, visual assessment 40 days after sowing
# Procedure: The experiments were carried out pre-emergence of the weed species at various research farm locations throughout the Mid-West corn belt in United States of America with Compounds A and D (each formulated as wettable powders) and metolachlor (formulated as a 96% emulsifiable concentrate), alachlor (formulated as a 48% emulsifiable concentrate) and dimethenamid (formulated as a 90% emulsifiable concentrate).
# Various mixtures of the above 4-benzoylisoxazoles and chloroacetamides were weighed out and dissolved in water to give a solution containing the appropriate concentrations and ratios of active ingredients.
# The solution was mixed for one hour and applied at a spray volume of 231 litres/hectare to a 3 metre by 5 metre test plot comprising the maize seed which were sown 2 days earlier. 3 replicates were performed. The experiments were performed using seven varities of maize (except for the mixtures comprising alachlor at 1120 g per hectare, where four varieties were used). A control plot was sprayed with a solution not containing test compound. Visual assessment of phytotoxicity was made 40 days after sowing the maize seeds based on a comparison with the control plot. Table F1
smiles,measurement,setting,value
"CS(=O)(=O)c1cc(C(F)(F)F)ccc1C(=O)c1cnoc1C1CC1 [Compound A, 5-cyclopropyl-4-(2-methylsulphonyl-4-trifluoromethyl)benzoylisoxazole]",percentage phytotoxicity,maize (Zea mays),0%
same,percent reduction in plant growth,Setaria viridis; A 0.5 g/ha alone,15%
same,percent reduction in plant growth,Setaria viridis; A 1 g/ha alone,5%
same,percent reduction in plant growth,Setaria viridis; A 2 g/ha alone,47.5%
same,percent reduction in plant growth,Setaria viridis; A 4 g/ha alone,33.75%
same,percent reduction in plant growth,Setaria viridis; A 8 g/ha alone,38.75%
same,percent reduction in plant growth,Setaria viridis; A 16 g/ha alone,53.75%
same,percent reduction in plant growth,Setaria viridis; A 32 g/ha alone,70%
same,percent reduction in plant growth,Setaria viridis; A 64 g/ha alone,76%
same,percent reduction in plant growth,Setaria viridis; A 128 g/ha alone,88.75%
same,percent reduction in plant growth,"Digitaria sanguinalis; A 1 g/ha alone, Table B1",18.75%
same,percent reduction in plant growth,"Digitaria sanguinalis; A 1 g/ha alone, Table D1",0%
same,percent reduction in plant growth,"Digitaria sanguinalis; A 2 g/ha alone, Table B1",20%
same,percent reduction in plant growth,"Digitaria sanguinalis; A 2 g/ha alone, Table C1",20%
same,percent reduction in plant growth,"Digitaria sanguinalis; A 2 g/ha alone, Table D1",12.5%
same,percent reduction in plant growth,"Digitaria sanguinalis; A 4 g/ha alone, Table B1",33.75%
same,percent reduction in plant growth,"Digitaria sanguinalis; A 4 g/ha alone, Table C1",40%
same,percent reduction in plant growth,"Digitaria sanguinalis; A 4 g/ha alone, Table D1",17.5%
same,percent reduction in plant growth,"Digitaria sanguinalis; A 8 g/ha alone, Table B1",67.5%
same,percent reduction in plant growth,"Digitaria sanguinalis; A 8 g/ha alone, Table C1",7.5%
same,percent reduction in plant growth,"Digitaria sanguinalis; A 8 g/ha alone, Table D1",61.25%
same,percent reduction in plant growth,"Digitaria sanguinalis; A 16 g/ha alone, Table B1",50%
same,percent reduction in plant growth,"Digitaria sanguinalis; A 16 g/ha alone, Table C1",50%
same,percent reduction in plant growth,"Digitaria sanguinalis; A 16 g/ha alone, Table D1",67.5%
same,percent reduction in plant growth,"Digitaria sanguinalis; A 32 g/ha alone, Table B1",73.5%
same,percent reduction in plant growth,"Digitaria sanguinalis; A 32 g/ha alone, Table C1",74.75%
same,percent reduction in plant growth,"Digitaria sanguinalis; A 32 g/ha alone, Table D1",66%
same,percent reduction in plant growth,"Digitaria sanguinalis; A 64 g/ha alone, Table B1",87.5%
same,percent reduction in plant growth,"Digitaria sanguinalis; A 64 g/ha alone, Table C1",80%
same,percent reduction in plant growth,"Digitaria sanguinalis; A 64 g/ha alone, Table D1",95%
same,percent reduction in plant growth,"Digitaria sanguinalis; A 128 g/ha alone, Table C1",93.5%
same,percent reduction in plant growth,"Digitaria sanguinalis; A 128 g/ha alone, Table D1",76.25%
same,percent reduction in plant growth,"Digitaria sanguinalis; A 256 g/ha alone, Table D1",98.75%
same,percent reduction in plant growth,Amaranthus retroflexus; A 1 g/ha alone,12.5%
same,percent reduction in plant growth,Amaranthus retroflexus; A 2 g/ha alone,51.25%
same,percent reduction in plant growth,Amaranthus retroflexus; A 4 g/ha alone,12.5%
same,percent reduction in plant growth,Amaranthus retroflexus; A 8 g/ha alone,87.5%
same,percent reduction in plant growth,Amaranthus retroflexus; A 16 g/ha alone,92.5%
same,percent reduction in plant growth,Amaranthus retroflexus; A 32 g/ha alone,99.75%
same,percent reduction in plant growth,Amaranthus retroflexus; A 64 g/ha alone,99.75%
same,percent reduction in plant growth,"Echinochloa crus-galli; A 1 g/ha alone, Table B2",12.5%
same,percent reduction in plant growth,"Echinochloa crus-galli; A 1 g/ha alone, Table D2",11.25%
same,percent reduction in plant growth,"Echinochloa crus-galli; A 2 g/ha alone, Table B2",6.25%
same,percent reduction in plant growth,"Echinochloa crus-galli; A 2 g/ha alone, Table C2",3.75%
same,percent reduction in plant growth,"Echinochloa crus-galli; A 2 g/ha alone, Table D2",7.5%
same,percent reduction in plant growth,"Echinochloa crus-galli; A 4 g/ha alone, Table B2",1.25%
same,percent reduction in plant growth,"Echinochloa crus-galli; A 4 g/ha alone, Table C2",2.5%
same,percent reduction in plant growth,"Echinochloa crus-galli; A 4 g/ha alone, Table D2",15%
same,percent reduction in plant growth,"Echinochloa crus-galli; A 8 g/ha alone, Table B2",61.25%
same,percent reduction in plant growth,"Echinochloa crus-galli; A 8 g/ha alone, Table C2",32.5%
same,percent reduction in plant growth,"Echinochloa crus-galli; A 8 g/ha alone, Table D2",15%
same,percent reduction in plant growth,"Echinochloa crus-galli; A 16 g/ha alone, Table B2",71.25%
same,percent reduction in plant growth,"Echinochloa crus-galli; A 16 g/ha alone, Table C2",60%
same,percent reduction in plant growth,"Echinochloa crus-galli; A 16 g/ha alone, Table D2",62.5%
same,percent reduction in plant growth,"Echinochloa crus-galli; A 32 g/ha alone, Table B2",75%
same,percent reduction in plant growth,"Echinochloa crus-galli; A 32 g/ha alone, Table C2",90%
same,percent reduction in plant growth,"Echinochloa crus-galli; A 32 g/ha alone, Table D2",86%
same,percent reduction in plant growth,"Echinochloa crus-galli; A 64 g/ha alone, Table B2",93.5%
same,percent reduction in plant growth,"Echinochloa crus-galli; A 64 g/ha alone, Table C2",97%
same,percent reduction in plant growth,"Echinochloa crus-galli; A 64 g/ha alone, Table D2",87.5%
same,percent reduction in plant growth,"Echinochloa crus-galli; A 128 g/ha alone, Table B2",93.75%
same,percent reduction in plant growth,"Echinochloa crus-galli; A 128 g/ha alone, Table C2",99.75%
same,percent reduction in plant growth,"Echinochloa crus-galli; A 128 g/ha alone, Table D2",99.5%
same,percent reduction in plant growth,"Echinochloa crus-galli; A 256 g/ha alone, Table D2",92.5%
same,Visual assessment of phytotoxicity,maize; A 78 g/ha alone,0
same,Visual assessment of phytotoxicity,maize; A 105 g/ha alone,0
